Each structure is given as a SMILES string.

This test deals with T1, BCL6 (Homo sapiens, UniProt P41182).
T1 construct: HiBiT-tag knocked into endogenous BCL6 locus using CRISPR; endogenous in cells; host or cells: DHL-4_BCL6_HiBiT cells (CRISPR knock-in)
In words: BCL6_HiBiT degradation assay (2 h). As to conditions: DHL-4_BCL6_HiBiT cells, read-out: YCon (% remaining maximal effect). It counts as cell-based. How it is done: A DHL-4 cell line with HiBiT-tag knocked into endogenous BCL6 locus using CRISPR was generated. The DHL-4_BCL6_HiBiT cells were dispensed into 384-well plates (Corning no. 3570) that were pre-spotted with compounds. Compounds were dispensed by an acoustic dispenser (ATS acoustic transfer system from EDC Biosystems) into a 384-well plate in a 10-point dose response curve using 3-fold dilutions starting at 1-10 μM and going down to […]. 25 μL of media (RPMI-1640+10% heat inactivated FBS+1×Pen/Strep) containing 2500 of DHL-4 was dispensed per well. Assay plates were incubated at 37° C. with 5% CO2 for 2 hours. After incubation, 25 μL of the Nano-Glo HiBiT lytic detection working solution (Promega, catalogue no. N3040, Madison, WI) was added to each well and incubated at room temperature for 15-30 min, protected from light. After 30 min, luminescence was read on an Envision or PHERAstar luminescence reader. To determine the EC50 value (the half-maximum effective concentration) and the level of the gradation (Yconstant) of a BCL6 degrader, luminescent signal normalized by DMSO control (Y) and compound concentration (x) was fitted using a four-parameter dose-response model (Y=(A+((B−A)/1+((C/x)^D) in Dotmatics. Fitted value C is the degradation EC50 and the minimum value A is the Y constant.
The degradation of BCL6 at 2 h in DHL-4 results are shown in Table 5, where EC50 is the half maximal effect and Ycon is the % remaining maximal effect.
On to `CN1C(=O)Cc2cc(Nc3nc(N(C)[C@H]4CC[C@H](Nc5ccc6c(C7CCC(=O)NC7=O)nn(C)c6c5)CC4)ncc3Cl)ccc21` (stereo partly drawn) [Example 3, 3-(6-(((trans)-4-((5-chloro-4-((1-methyl-2-oxoindolin-5-yl)amino)pyrimidin-2-yl)(methyl)amino)cyclohexyl)amino)-1-methyl-1H-indazol-3-yl)piperidine-2,6-dione], for which the Percent BCL6 remaining at maximal degradation (Ycon) is above 60%.

As to `C[C@@H]1C[C@H](N(C)c2ncc(Cl)c(Nc3ccc4c(c3)CC(=O)N4C)n2)CCN1c1ccc2c(C3CCC(=O)NC3=O)nn(C)c2c1` (stereo partly drawn) [Example 4, 3-(6-((2R,4R)-4-((5-chloro-4-((1-methyl-2-oxoindolin-5-yl)amino)pyrimidin-2-yl)(methyl)amino)-2-methylpiperidin-1-yl)-1-methyl-1H-indazol-3-yl)piperidine-2,6-dione], the Percent BCL6 remaining at maximal degradation (Ycon) was below 20%.

For the compound `CC1CN(c2ncc(Cl)c(Nc3ccc4c(c3)CC(=O)N4C)n2)CC(=O)N1c1ccc2c(C3CCC(=O)NC3=O)nn(C)c2c1` (centres unmarked) [Example 5, 3-(6-(4-(5-chloro-4-((1-methyl-2-oxoindolin-5-yl)amino)pyrimidin-2-yl)-2-methyl-6-oxopiperazin-1-yl)-1-methyl-1H-indazol-3-yl)piperidine-2,6-dione], the Percent BCL6 remaining at maximal degradation (Ycon) was above 60%.

Consider `CN1C(=O)Cc2cc(Nc3nc(N(C)C4CCN(c5ccc6c(C7CCC(=O)NC7=O)nn(C)c6c5)CC4)ncc3Cl)ccc21` (centres unmarked) [Example 6, 3-(6-(4-((5-Chloro-4-((1-methyl-2-oxoindolin-5-yl)amino)pyrimidin-2-yl)(methyl)amino)piperidin-1-yl)-1-methyl-1H-indazol-3-yl)piperidine-2,6-dione], for which the Percent BCL6 remaining at maximal degradation (Ycon) is above 60%.

In the case of `CN1C(=O)Cc2cc(Nc3nc(N4CCC(N(C)c5ccc6c(C7CCC(=O)NC7=O)nn(C)c6c5)CC4)ncc3Cl)ccc21` (centres unmarked) [Example 7, 3-(6-((1-(5-chloro-4-((1-methyl-2-oxoindolin-5-yl)amino)pyrimidin-2-yl)piperidin-4-yl)(methyl)amino)-1-methyl-1H-indazol-3-yl)piperidine-2,6-dione], the Percent BCL6 remaining at maximal degradation (Ycon) was above 60%.

On to `Cn1nc(C2CCC(=O)NC2=O)c2ccc(N3CCC(Nc4ncc(Cl)c(Nc5ccc6c(c5)N(CCC(C)(C)O)C(=O)C6)n4)CC3)cc21` (centres unmarked) [Example 8, 3-(6-(4-((5-chloro-4-((1-(3-hydroxy-3-methylbutyl)-2-oxoindolin-6-yl)amino)pyrimidin-2-yl)amino)piperidin-1-yl)-1-methyl-1H-indazol-3-yl)piperidine-2,6-dione], for which the Percent BCL6 remaining at maximal degradation (Ycon) was above 60%.

Regarding `Cn1nc(C2CCC(=O)NC2=O)c2ccc(NC3CCN(c4ncc(Cl)c(Nc5ccc6c(c5)N(CCC(C)(C)O)C(=O)C6)n4)CC3)cc21` (centres unmarked) [Example 9, 3-[6-[[1-[5-Chloro-4-[[1-(3-hydroxy-3-methyl-butyl)-2-oxo-indolin-6-yl]amino]pyrimidin-2-yl]-4-piperidyl]amino]-1-methyl-indazol-3-yl]piperidine-2,6-dione], the Percent BCL6 remaining at maximal degradation (Ycon) is above 60%.

With `CN(c1ccc2c(C3CCC(=O)NC3=O)nn(C)c2c1)C1CCN(c2ncc(Cl)c(Nc3ccc4c(c3)N(CCC(C)(C)O)C(=O)C4)n2)CC1` (centres unmarked) [Example 10, 3-(6-((1-(5-chloro-4-((1-(3-hydroxy-3-methylbutyl)-2-oxoindolin-6-yl)amino)pyrimidin-2-yl)piperidin-4-yl)(methyl)amino)-1-methyl-1H-indazol-3-yl)piperidine-2,6-dione], the Percent BCL6 remaining at maximal degradation (Ycon) lay in the range of 20 to 60%.

As to `CN(c1ncc(Cl)c(Nc2ccc3c(c2)N(CCC(C)(C)O)C(=O)C3)n1)C1CCN(c2ccc3c(C4CCC(=O)NC4=O)nn(C)c3c2)CC1` (centres unmarked) [Example 11, 3-(6-(4-((5-chloro-4-((1-(3-hydroxy-3-methylbutyl)-2-oxoindolin-6-yl)amino)pyrimidin-2-yl)(methyl)amino)piperidin-1-yl)-1-methyl-1H-indazol-3-yl)piperidine-2,6-dione], the Percent BCL6 remaining at maximal degradation (Ycon) was above 60%.

On to `C[C@@H]1CN(c2ncc(Cl)c(Nc3ccc4c(c3)CC(=O)N4C)n2)CC[C@@H]1Nc1ccc2c(C3CCC(=O)NC3=O)nn(C)c2c1` (stereo partly drawn) [Example 12, 3-(6-{[(3R,4S)-1-{5-chloro-4-[(1-methyl-2-oxo-2,3-dihydro-1H-indol-5-yl)amino]pyrimidin-2-yl}-3-methylpiperidin-4-yl]amino}-1-methyl-1H-indazol-3-yl)piperidine-2,6-dione], for which the Percent BCL6 remaining at maximal degradation (Ycon) is below 20%.

For `C[C@H]1CN(c2ncc(Cl)c(Nc3ccc4c(c3)CC(=O)N4C)n2)CC[C@H]1Nc1ccc2c(C3CCC(=O)NC3=O)nn(C)c2c1` (stereo partly drawn) [Example 13, 3-(6-(((3S,4R)-1-(5-chloro-4-((1-methyl-2-oxoindolin-5-yl)amino)pyrimidin-2-yl)-3-methylpiperidin-4-yl)amino)-1-methyl-1H-indazol-3-yl)piperidine-2,6-dione], the Percent BCL6 remaining at maximal degradation (Ycon) was above 60%.

As for `C[C@H]1CN(c2ncc(Cl)c(Nc3ccc4c(c3)CC(=O)N4C)n2)CC[C@@H]1Nc1ccc2c(C3CCC(=O)NC3=O)nn(C)c2c1` (stereo partly drawn) [Example 14, 3-(6-(((3S,4S)-1-(5-chloro-4-((1-methyl-2-oxoindolin-5-yl)amino)pyrimidin-2-yl)-3-methylpiperidin-4-yl)amino)-1-methyl-1H-indazol-3-yl)piperidine-2,6-dione], the Percent BCL6 remaining at maximal degradation (Ycon) is above 60%.

With `CN1C(=O)Cc2cc(Nc3nc(N(C)C4CC5CCC(C4)N5c4ccc5c(C6CCC(=O)NC6=O)nn(C)c5c4)ncc3Cl)ccc21` [Example 15, 3-(6-((1R,3s,5S)-3-((5-chloro-4-((1-methyl-2-oxoindolin-5-yl)amino)pyrimidin-2-yl)(methyl)amino)-8-azabicyclo[3.2.1]octan-8-yl)-1-methyl-1H-indazol-3-yl)piperidine-2,6-dione], the Percent BCL6 remaining at maximal degradation (Ycon) was above 60%.

For `CN1C(=O)Cc2cc(Nc3nc(N(C)[C@H]4C[C@H]5CC[C@@H](C4)N5c4ccc5c(C6CCC(=O)NC6=O)nn(C)c5c4)ncc3Cl)ccc21` (stereo partly drawn) [Example 16, 3-(6-((1R,3r,5S)-3-((5-chloro-4-((1-methyl-2-oxoindolin-yl)amino)pyrimidin-2-yl)(methyl)amino)-8-azabicyclo[3.2.1]octan-8-yl)-1-methyl-1H-indazol-3-yl)piperidine-2,6-dione], the Percent BCL6 remaining at maximal degradation (Ycon) is 20 to 60%.

Regarding `CN1C(=O)Cc2cc(Nc3nc(N4CCN(Cc5ccc6c(C7CCC(=O)NC7=O)nn(C)c6c5)CC4)ncc3Cl)ccc21` (centres unmarked) [Example 17, 3-(6-((4-(5-chloro-4-((1-methyl-2-oxoindolin-5-yl)amino)pyrimidin-2-yl)piperazin-1-yl)methyl)-1-methyl-1H-indazol-3-yl)piperidine-2,6-dione], the Percent BCL6 remaining at maximal degradation (Ycon) is above 60%.

Take `Cn1nc(C2CCC(=O)NC2=O)c2ccc(NC3CCN(c4ncc(Cl)c(Nc5ccc6c(c5)CC(=O)N6CC(F)(F)F)n4)CC3)cc21` (centres unmarked) [Example 18, 3-(6-((1-(5-chloro-4-((2-oxo-1-(2,2,2-trifluoroethyl)indolin-5-yl)amino)pyrimidin-2-yl)piperidin-4-yl)amino)-1-methyl-1H-indazol-3-yl)piperidine-2,6-dione]: the Percent BCL6 remaining at maximal degradation (Ycon) was above 60%.

`C[C@H]1C[C@@H](Nc2ccc3c(C4CCC(=O)NC4=O)nn(C)c3c2)CCN1c1ncc(Cl)c(Nc2ccc3c(c2)CC(=O)N3C)n1` (stereo partly drawn) [Example 19, 3-(6-(((2S,4S)-1-(5-chloro-4-((1-methyl-2-oxoindolin-5-yl)amino)pyrimidin-2-yl)-2-methylpiperidin-4-yl)amino)-1-methyl-1H-indazol-3-yl)piperidine-2,6-dione]: the Percent BCL6 remaining at maximal degradation (Ycon) was 20 to 60%.

Take `C[C@H]1C[C@@H](N(C)c2ncc(Cl)c(Nc3ccc4c(c3)CC(=O)N4C)n2)CCN1c1ccc2c(C3CCC(=O)NC3=O)nn(C)c2c1` (stereo partly drawn) [Example 20, 3-(6-((2S,4S)-4-((5-chloro-4-((1-methyl-2-oxoindolin-5-yl)amino)pyrimidin-2-yl)(methyl)amino)-2-methylpiperidin-1-yl)-1-methyl-1H-indazol-3-yl)piperidine-2,6-dione]: the Percent BCL6 remaining at maximal degradation (Ycon) was in the range of 20 to 60%.

With `C[C@@H]1C[C@H](N(C)c2ccc3c(C4CCC(=O)NC4=O)nn(C)c3c2)CCN1c1ncc(Cl)c(Nc2ccc3c(c2)CC(=O)N3C)n1` (stereo partly drawn) [Example 21, 3-(6-(((2R,4R)-1-(5-chloro-4-((1-methyl-2-oxoindolin-5-yl)amino)pyrimidin-2-yl)-2-methylpiperidin-4-yl)(methyl)amino)-1-methyl-1H-indazol-3-yl)piperidine-2,6-dione], the Percent BCL6 remaining at maximal degradation (Ycon) was above 60%.

With `C[C@@H]1C[C@H](Nc2ccc3c(C4CCC(=O)NC4=O)nn(C)c3c2)CCN1c1ncc(Cl)c(Nc2ccc3c(c2)CC(=O)N3C)n1` (stereo partly drawn) [Example 22, 3-(6-(((2R,4R)-1-(5-chloro-4-((1-methyl-2-oxoindolin-5-yl)amino)pyrimidin-2-yl)-2-methylpiperidin-4-yl)amino)-1-methyl-1H-indazol-3-yl)piperidine-2,6-dione], the Percent BCL6 remaining at maximal degradation (Ycon) is above 60%.

Source of the values: US12404239B2, “Modulators of BCL6 as ligand directed degraders” (Celgene Corporation, priority 2022, dated 2025).
